Results: publication PMC8916034, “Abubidentin A, New Oleanane-type Triterpene Ester from Abutilon bidentatum and its antioxidant, cholinesterase and antimicrobial activities” (PeerJ, 2022)
In brackets after ≈: the same amount, converted by molar mass. Several values for one entry are separate records, joined by “and”; a condition that tells them apart may be missing. Identical values can stand only once. Like-named read-outs stand apart in the source and are kept apart here.

Key:
[1] = DPPH radical scavenging activity; conditions: for AA (mg/gm) Avg (DPPH activity) / AA (mg/gm) (DPPH activity), single trial: Conc 20 µg/mL; for AA (mg/gm) Avg (DPPH activity): average of trials A-C; for AA (mg/gm) (DPPH activity), single trial: single trials A, B, C; for DPPH IC50: mean ± SD, triplicate, 30 min, 517 nm
Experimental: The ability of the samples to scavenge DPPH radical was determined by [Wang, Chen & Hou (2019)] method with slight modification ([Wang, Chen & Hou, 2019]). […] Samples were incubated at ambient temperature under dark conditions for 30 min and the absorbance wavelength was measured at 517 nm against a blank sample. DPPH^• solution and ascorbic acid were used as blank samples and positive control, respectively.
where Ab and As are the absorbance values of the blank and test samples, respectively.

[2] = ABTS radical cation decolorization assay; conditions: for AA (mg/gm) Avg (ABTS+ activity) / AA (mg/gm) (ABTS+ activity), single trial: Conc. 20 µg/mL; for AA (mg/gm) Avg (ABTS+ activity): average of trials A-C; for AA (mg/gm) (ABTS+ activity), single trial: single trials A, B, C; for ABTS^+ IC50: mean ± SD, triplicate, 30 min, 734 nm
Experimental: ABTS radical cation decolorization assay was performed to measure the total antioxidant activity of the samples by obeying the previously described method ([Re et al., 1999]). In brief, ABTS^•+ radicals were generated by treating 7 mM ABTS^+ aqueous solution with 2.4 mM potassium persulfate for 12-16 h at room temperature in the dark. Prior to use, this solution was diluted with ethanol (approx. 1:89 v/v) and equilibrated to […] absorbance at 734 nm to obtain the working solution. Afterward, a 1.0 mL of working solution was reacted with 20 µL (1 mg mL^−1) samples and incubated for 30 min. After incubation, samples were scanned at 734 nm absorbance wavelength and the percentage of inhibition was determined. Ascorbic acid (AA) was applied reference standard.

[3] = test system: Escherichia coli (ATCC 25922); test: MIC, broth microdilution with resazurin; type: cell-based; conditions: 24 h at 37 °C; for MIC: Escherichia coli, ATCC25922, 24 h
Experimental: (§1) The acetylcholinesterase (AChE) and butyrylcholinesterase (BChE) were obtained from the mouse brain and human blood at the Pharmacology Department of King Saud University, SaudiArabia. Escherichia coli (ATCC 25922), Pseudomonas aeruginosa (ATCC 27853), and Staphylococcus aureus were provided by Microbiology Department, King Khaled University Hospital (KKUH), Saudi Arabia.
(§2) Minimum inhibitory concentration (MIC) assay was performed to evaluate the in vitro antimicrobial activities using a broth microdilution method ([Nascente, 2009]). Three bacterial strains Escherichia coli (ATCC 25922), Pseudomonas aeruginosa (ATCC 27853), and Staphylococcus aureus were applied to examine the antimicrobial activity of samples. Briefly, the microbial strains were transferred to Muller Hinton agar (MHB, HiMedia, India) and 24-h colonies were individually suspended in 10 mL Muller Hinton broth (MHB, HiMedia, India). The suspension of each microbial strain was standardized at 575 nm wavelength using a spectrophotometer (CRAIC Technologies, CA, USA), to match the McFarland scale (1.5 × 10^8 CFU mL^−1). The standardized suspension was further diluted to obtain a final concentration of 5 × 10^5 CFU mL^−1. The samples prepared in DMSO at 1 mgmL^−1 and different concentrations (30–500 µgmL^−1) were attained after dilution in Mueller Hinton broth. Three inoculated wells containing different concentrations of DMSO (4% to 1% range), one non-inoculated well without an antimicrobial agent and negative controls were included. The inoculated well was used to monitor whether the broth was sufficient for the microbial strain to grow. Chloramphenicol ([…]) was applied as a positive control. The sample treated 96-well microplates were sealed and incubated for 24 h at 37 °C After a 1-day incubation, […] of 0.02% resazurin solution was added into each well to examine the viability of the microbial strain ([Palomino et al., 2002]). The minimum used concentration of test sample that inhibited the microorganism growth (MIC value) was calculated as the minimum concentration of the test samples required to prevent the color change of the resazurin solution. All the assays were performed in triplicates.

[4] = test system: Pseudomonas aeruginosa (ATCC 27853); test: MIC, broth microdilution with resazurin; type: cell-based; conditions: 24 h at 37 °C; for MIC: Pseudomonas aeruginosa, ATCC27853, 24 h
Experimental: as §1, §2

Staphylococcus aureus = test: MIC, broth microdilution with resazurin; type: cell-based; conditions: 24 h at 37 °C; for MIC: Staphylococcus aureus, 24 h
Experimental: as §1, §2

[5] = biological target: T1, acetylcholinesterase (AChE) (Mus musculus, UniProt P21836); test: biochemical; conditions: for Donep (mg/gm) Avg (AChE inhibitory activity) / Abs (AChE inhibitory activity) / Donep (mg/gm) (AChE inhibitory activity), single trial: Conc 10 µg/mL; for Donep (mg/gm) Avg (AChE inhibitory activity): average of trials A-C; for Abs (AChE inhibitory activity) / Donep (mg/gm) (AChE inhibitory activity), single trial: single trials A, B, C
T1 construct: Crude enzymes, AChE (acetylcholinesterase) and BChE (butyrylcholinesterase) were collected from brain of mice and blood of humans, respectively; from tissue; host or cells: mouse brain
T1 sequence (P21836 32-614): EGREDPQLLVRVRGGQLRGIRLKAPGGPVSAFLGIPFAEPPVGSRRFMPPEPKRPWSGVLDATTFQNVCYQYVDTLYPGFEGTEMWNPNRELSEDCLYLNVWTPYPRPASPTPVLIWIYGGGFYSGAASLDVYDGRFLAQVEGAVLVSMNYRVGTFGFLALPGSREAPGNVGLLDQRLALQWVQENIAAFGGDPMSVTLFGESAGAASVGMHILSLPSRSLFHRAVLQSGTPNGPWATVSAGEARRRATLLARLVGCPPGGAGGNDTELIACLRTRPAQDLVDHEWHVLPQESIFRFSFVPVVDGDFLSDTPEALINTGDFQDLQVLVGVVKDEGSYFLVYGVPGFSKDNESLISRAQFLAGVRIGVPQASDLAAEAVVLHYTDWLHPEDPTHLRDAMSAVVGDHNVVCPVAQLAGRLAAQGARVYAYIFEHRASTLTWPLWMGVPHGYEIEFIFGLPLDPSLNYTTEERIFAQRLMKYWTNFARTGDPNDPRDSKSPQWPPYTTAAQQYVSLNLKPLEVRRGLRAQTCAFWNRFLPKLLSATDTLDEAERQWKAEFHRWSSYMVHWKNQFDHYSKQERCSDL
Experimental: (§3) The acetylcholinesterase (AChE) and butyrylcholinesterase (BChE) were obtained from the mouse brain and human blood at the Pharmacology Department of King Saud University, SaudiArabia.
(§4) The AChE and BChE assays were tested by using two chemical substrates acetylthiocholine iodide and S-butyrylthiochoilne iodide, respectively. […] Afterwards, […] (1 mM, 62 µL), sodium phosphate buffer (50 mM, 25 µL, pH 8) provided with bovine albumin serum (0.1%) and […] (0.5 mm, 13 µL) were added separately into each reaction mixture. […] All the experiments were performed in triplicates to avoid error and the results were estimated through the two-tailed Student’s t-test at a p < 0.05 significance. The inhibition percentage of cholinesterase activity was calculated using the following equation I%=AC−As/AC×100
(§5) where Ac and As is the absorbance of control and sample or reference compound. IC50 values could be determined from the dose response curve obtained by plotting the percent inhibition values against test concentrations of each compound.

[6] = biological target: T2, butyrylcholinesterase (BChE) (Homo sapiens, UniProt P06276); test: biochemical; conditions: for Gal (mg/gm) Avg (BChE inhibitory activity) / Abs (BChE inhibitory activity) / Gal (mg/gm) (BChE inhibitory activity), single trial: Conc 10 µg/mL; for Gal (mg/gm) Avg (BChE inhibitory activity): average of trials A-C; for Abs (BChE inhibitory activity) / Gal (mg/gm) (BChE inhibitory activity), single trial: single trials A, B, C;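 on Abs (BChE inhibitory activity): absorbance read at 405 nm against blank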
T2 construct: Crude enzymes, AChE (acetylcholinesterase) and BChE (butyrylcholinesterase) were collected from brain of mice and blood of humans, respectively; from tissue; host or cells: human blood
T2 sequence (P06276 29-602): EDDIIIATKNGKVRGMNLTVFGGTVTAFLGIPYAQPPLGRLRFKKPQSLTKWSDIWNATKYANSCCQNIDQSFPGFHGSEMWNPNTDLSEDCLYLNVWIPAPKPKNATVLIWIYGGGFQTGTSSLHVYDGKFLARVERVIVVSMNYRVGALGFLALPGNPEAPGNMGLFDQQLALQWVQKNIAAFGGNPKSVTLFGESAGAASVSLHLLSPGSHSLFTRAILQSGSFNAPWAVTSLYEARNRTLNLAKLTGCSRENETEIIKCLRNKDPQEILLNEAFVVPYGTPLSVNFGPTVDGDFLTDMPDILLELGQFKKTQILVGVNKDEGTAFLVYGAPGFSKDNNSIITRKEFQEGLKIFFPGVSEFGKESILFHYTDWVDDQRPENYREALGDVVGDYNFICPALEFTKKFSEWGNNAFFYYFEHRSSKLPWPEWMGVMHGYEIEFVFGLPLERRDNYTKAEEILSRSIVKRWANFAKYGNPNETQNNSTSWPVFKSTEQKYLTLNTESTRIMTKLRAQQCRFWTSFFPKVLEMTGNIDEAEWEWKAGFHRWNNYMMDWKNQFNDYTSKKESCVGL
Experimental: as §3, §4, §5

[7] = E. coli, read-out: Minimum inhibitory concentration
[8] = P. aeruginosa, read-out: Minimum inhibitory concentration
[9] = S. aureus, read-out: Minimum inhibitory concentration
[10] = crude enzyme from mouse brain, mean ± SD, triplicate, read-out: AChE IC50 (converted)
[11] = crude enzyme from human blood, mean ± SD, triplicate, read-out: BChE IC50 (converted)

Row | Compound | AA (mg/gm) Avg (DPPH activity) [1] | AA (mg/gm) (DPPH activity), single trial [1] | DPPH IC50 [1] | AA (mg/gm) Avg (ABTS+ activity) [2] | AA (mg/gm) (ABTS+ activity), single trial [2] | ABTS^+ IC50 [2] | MIC [3, 7] | MIC [4, 8] | MIC (Staphylococcus aureus; [9]) | Donep (mg/gm) Avg (AChE inhibitory activity) [5] | Abs (AChE inhibitory activity) [5] | Donep (mg/gm) (AChE inhibitory activity), single trial [5] | IC50 [5, 10] | Gal (mg/gm) Avg (BChE inhibitory activity) [6] | Abs (BChE inhibitory activity) [6] | Gal (mg/gm) (BChE inhibitory activity), single trial [6] | IC50 [6, 11] | Minimum inhibitory concentration ([3]; E. coli) | Minimum inhibitory concentration ([4]; P. aeruginosa) | Minimum inhibitory concentration (Staphylococcus aureus; S. aureus) | also measured
1 | O=C1O[C@H]([C@@H](O)CO)C(O)=C1O [Ascorbic acid, ascorbic acid, reference compound] | 3.12 mg/gm | 3.30 mg/gm and 2.84 mg/gm and 3.22 mg/gm | 3.12 ± 0.24^a µgmL^−1 | 4.45 mg/gm | 4.52 mg/gm and 4.25 mg/gm and 4.58 mg/gm | 4.45 ± 0.17^a µgmL^−1 | – | – | – | – | – | – | – | – | – | – | – | – | – | – | –
2 | O=C(N[C@H](CO)[C@H](O)c1ccc([N+](=O)[O-])cc1)C(Cl)Cl [Chloramphenicol, reference compound] | – | – | – | – | – | – | ≤ 40 µg/mL | ≤ 40 µg/mL | ≤ 40 µg/mL | – | – | – | – | – | – | – | – | – | – | – | –
3 | CCCCCCCCCCCCCCCCCCCCC(O)C(=O)O (stereo not drawn) [Compound 1, 2-hydroxydocosanoic acid] | 10.82 mg/gm | 10.98 mg/gm and 10.54 mg/gm and 10.96 mg/gm | 10.82 ± 0.24^d µgmL^−1 | 11.45 mg/gm | 11.64 mg/gm and 11.02 mg/gm and 11.70 mg/gm | 11.45 ± 0.37^d µgmL^−1 | ≤ 500 µg/mL | ≤ 1000 µg/mL | ≤ 1000 µg/mL | 121.97 mg/gm | 0.342 and 0.328 and 0.345 | 122.89 mg/gm and 120.10 mg/gm and 122.92 mg/gm | 342 µM | 137.76 mg/gm | 0.375 and 0.379 and 0.354 | 138.12 mg/gm and 136.98 mg/gm and 138.18 mg/gm | 386 µM | – | – | – | –
4 | CC[C@@H](/C=C/[C@@H](C)C1CCC2C3CCC4C[C@@H](O)CC[C@]4(C)C3CC[C@@]21C)C(C)C (stereo partly drawn) [Compound 2, stigmasta-22-ene-3-β-ol] | 7.60 mg/gm | 7.84 mg/gm and 7.12 mg/gm and 7.86 mg/gm | 7.60 ± 0.42^c µgmL^−1 | 8.18 mg/gm | 8.25 mg/gm and 8.02 mg/gm and 8.28 mg/gm | 8.18 ± 0.13^c µgmL^−1 | – | – | – | 68.65 mg/gm | 0.312 and 0.315 and 0.317 | 68.94 mg/gm and 68.01 mg/gm and 69.02 mg/gm | – | 49.52 mg/gm | 0.355 and 0.365 and 0.358 | 49.70 mg/gm and 49.12 mg/gm and 49.74 mg/gm | – | ≤125 µg/mL | ≤250 µg/mL | ≤150 µg/mL | IC50 [5]: 166 µM; IC50 [6]: 119 µM; MIC ([3]; read-out: Minimum inhibitory concentration, E. coli): ≤ 125 µg/mL; MIC ([4]; read-out: Minimum inhibitory concentration, P. aeruginosa): ≤ 250 µg/mL; MIC (Staphylococcus aureus; read-out: Minimum inhibitory concentration, S. aureus): ≤ 150 µg/mL
5 | CCCCCCCCCCCCCCCCCCCCCCCCCCCCCCCC(=O)O[C@H]1C[C@H](O)[C@]2(C)C3=CC=C4[C@@H]5CC(CO)(C(=O)O)CC[C@]5(C)CC[C@@]4(C)[C@]3(C)CCC2C1(C)C (stereo partly drawn) [Compound 3, 1α,3β,30-Trihydroxy-29-carboxy-olean-9(11), 12-diene-3-dotriacontanoate] | 4.67 mg/gm | 4.89 mg/gm and 4.35 mg/gm and 4.78 mg/gm | 4.67 ± 0.28^b µgmL^−1 | 6.42 mg/gm | 6.56 mg/gm and 6.13 mg/gm and 6.58 mg/gm | 6.42 ± 0.25^b µgmL^−1 | 125 to 150 µg/mL (≈ 132 to 158 µM) | 125 to 150 µg/mL (≈ 132 to 158 µM) | 125 to 150 µg/mL (≈ 132 to 158 µM) | 38.13 mg/gm | 0.289 and 0.294 and 0.315 | 38.16 mg/gm and 38.05 mg/gm and 38.20 mg/gm | 40.2 µM | 32.68 mg/gm | 0.285 and 0.286 and 0.287 | 32.88 mg/gm and 32.25 mg/gm and 32.92 mg/gm | 34.4 µM | ≤150 µg/mL | ≤125 µg/mL | ≤125 µg/mL | Minimum inhibitory concentration ([3]; E. coli, listed as compound 3): ≤ 150 µg/mL; Minimum inhibitory concentration ([4]; P. aeruginosa, listed as compound 3): ≤ 125 µg/mL; Minimum inhibitory concentration (Staphylococcus aureus; S. aureus, listed as compound 3): ≤ 125 µg/mL
6 | COc1ccc2c3c1O[C@H]1C[C@@H](O)C=C[C@@]31CCN(C)C2 [Galantamine, reference compound] | – | – | – | – | – | – | – | – | – | – | – | – | – | 10.27 mg/gm | 0.345 and 0.348 and 0.352 | 10.78 mg/gm and 9.29 mg/gm and 10.80 mg/gm | – | – | – | – | –
